Source: article PMC4864809, “C‐type natriuretic peptide in combination with sildenafil attenuates proliferation of rhabdomyosarcoma cells” (Cancer Medicine, 2016)

How the values were obtained:
[1] = test system: RD‐GC‐B and RMS‐YM‐GC‐B cells; assay: Morphological appearance of cell death during proliferation assay; type: cell-based; details: during 96 h; CNP 1 μmol/L and/or sildenafil 100 μmol/L
Protocol: (§1) A total of 2000 cells per well were seeded into 96‐well plates in 100 μL of culture medium. After 24 h, the wells were washed twice with 1% serum‐free RPMI‐1640 medium and subsequently incubated in this medium. Twenty‐four hours after serum deprivation, CNP (1 μmol/L) and/or sildenafil (100 μmol/L) were added, and the cells were incubated for 0–4 days. Cell proliferation was determined in sextuplicate using the Cell Counting Kit‐8 (Nacalai Tesque, Kyoto, Japan).

[2] = test system: Raf/MEK/ERK signaling in RD‐GC‐B cells; assay: Western blot of Raf/MEK/ERK phosphorylation, RD‐GC‐B; type: cell-based, human; details: for ERK phosphorylation: CNP 1 μmol/L and/or sildenafil 100 μmol/L, 1–8 h
Protocol: (§2) A total of 1 × 10^5 cells per well were plated in 12‐well plastic plates in complete media. Cells were serum‐starved with RPMI‐1640 medium containing 1% serum for 24 h, and then treated with CNP (1 μmol/L) and/or sildenafil (100 μmol/L) for indicated times. Cells were lysed with NP‐40 buffer (0.5% NP‐40, 10 mmol/L Tris [pH 7.6], 0.15 mol/L NaCl, 1.5 mmol/L […]) containing phosphatase inhibitor cocktail (Nacalai Tesque). Samples were electrophoresed on 4–15% gradient gels (Bio‐Rad, Hercules, CA, USA) and transferred onto polyvinylidene difluoride transfer membranes (Millipore Bedford, MA). Antibody binding was detected with an enhanced chemiluminescence detection system (Amersham Pharmacia Biotech, Piscataway, NJ).

RD‐GC‐B cells [3] = assay: Caspase‐3 activity (Nuc‐View 488 Caspase‐3 assay kit); type: cell-based, human; details: same conditions as proliferation assay, Nuc‐View 488 substrate, data not shown
[4] = test system: Notch, Wnt, Hedgehog, and PI3K/AKT/mTOR signaling pathways in RD‐GC‐B cells; assay: Western blot of HES‐1, β‐catenin, GLI1 and phosphorylated Akt, RD‐GC‐B; type: cell-based, human; details: CNP 1 µM, sildenafil 100 µM, 4 hours
Protocol: as §2

[5] = test system: Raf/MEK/ERK signaling in RMS‐YM‐GC‐B cells; assay: Western blot of Raf/MEK/ERK phosphorylation, RMS‐YM‐GC‐B; type: cell-based, human; details: for ERK phosphorylation: CNP 1 μmol/L and/or sildenafil 100 μmol/L, 1–8 h
Protocol: as §2

RD‐GC‐B xenograft tumors = assay: Xenograft efficacy study; type: in vivo; details: for tumor growth (tumor volume): CNP 2.5 μg/kg/min continuous s.c. infusion, versus vehicle; for tumor growth (tumor volume) / Ki67 labeling index: n = 7–8; for Ki67 labeling index: RD‐GC‐B tumors, immunohistochemistry, relative to the control group; for Phosphorylated ERK levels in xenograft tumors: pERK1/2 versus total ERK1/2, western blot densitometry, after 4 weeks of treatment
Protocol: All animal experiments were performed according to a protocol approved by the Animal Care Ethics Committee of the National Cerebral and Cardiovascular Center Research Institute. Five‐week‐old male BALB/c nu/nu mice and 5‐week‐old male nonobese diabetic/severe combined immunodeficiency (NOD)⁄severe combined immunodeficiency (SCID) mice were purchased from Japan SLC (Shizuoka, Japan) and Oriental Yeast (Tokyo, Japan), respectively.
RD‐GC‐B cells (1–3 × 10^7 cells) were subcutaneously implanted into the chest and abdominal area of NOD/SCID mice. When the subcutaneous tumors reached a diameter of 10–12 mm, they were resected, divided into 5‐mm pieces, and reimplanted into the chest area of BALB/c nu/nu mice. Ten days after tumor implantation, administration of CNP and/or sildenafil was initiated. CNP was continuously infused using an osmotic mini‐pump (Alzet Model 1003D; Duret Corporation, Cupertino, CA), as previously reported 14. CNP was subcutaneously administered at a rate of 2.5 μg/kg/min, and treatment continued for 4 weeks. Sildenafil was intraperitoneally administered at a dose of 20 mg/kg every other day for 4 weeks. Tumor volume was calculated by the formula: V (mm^3) = 0.5 × a × b ^2, where a is the longest tumor axis and b is the shortest tumor axis.
Immunohitochemical staining was performed by the avidin‐biotin‐peroxidase complex (ABC) method using the Vectastain Elite ABC kit (Vector, Burlingame, CA) as described previously 14. Because the anti‐Ki67 antibody was mouse monoclonal antibody, a mouse on mouse immunodetection kit (Vector) was used. Images of immunohistochemical staining were captured using a FSX100 Bio Imaging Navigator microscope (Olympus, Tokyo, Japan). Ki67‐positive and ‐negative cells were counted using the CellSens Dimension software (Olympus). Ten randomly selected fields per section and 7–8 sections per animal were analyzed at 20 × magnification.

[6] = subcutaneous infusion of CNP at 2.5 μg/kg/min; cited from earlier work
Source text: There are some limitations in this study. First, RMS cells stably expressing GC‐B expressed higher levels of GC‐B than clinical samples. However, given that the recurrent sample expressed a very high level of GC‐B, the findings made using RMS cells stably expressing GC‐B are still quite valuable.

[7] = target: T1, GC‐B in RMS‐YM‐GC‐B cells (Homo sapiens, UniProt P20594); assay: Measurement of intracellular cGMP (RIA) in RMS‐YM‐GC‐B cells; type: cell-based; details: RMS‐YM‐GC‐B cells stably expressing GC‐B
T1 construct: host or cells: RD and RMS‐YM cells, retrovirally infected and puromycin-selected (RD‐GC‐B, RMS‐YM‐GC‐B)
T1 sequence (P20594 23-1047): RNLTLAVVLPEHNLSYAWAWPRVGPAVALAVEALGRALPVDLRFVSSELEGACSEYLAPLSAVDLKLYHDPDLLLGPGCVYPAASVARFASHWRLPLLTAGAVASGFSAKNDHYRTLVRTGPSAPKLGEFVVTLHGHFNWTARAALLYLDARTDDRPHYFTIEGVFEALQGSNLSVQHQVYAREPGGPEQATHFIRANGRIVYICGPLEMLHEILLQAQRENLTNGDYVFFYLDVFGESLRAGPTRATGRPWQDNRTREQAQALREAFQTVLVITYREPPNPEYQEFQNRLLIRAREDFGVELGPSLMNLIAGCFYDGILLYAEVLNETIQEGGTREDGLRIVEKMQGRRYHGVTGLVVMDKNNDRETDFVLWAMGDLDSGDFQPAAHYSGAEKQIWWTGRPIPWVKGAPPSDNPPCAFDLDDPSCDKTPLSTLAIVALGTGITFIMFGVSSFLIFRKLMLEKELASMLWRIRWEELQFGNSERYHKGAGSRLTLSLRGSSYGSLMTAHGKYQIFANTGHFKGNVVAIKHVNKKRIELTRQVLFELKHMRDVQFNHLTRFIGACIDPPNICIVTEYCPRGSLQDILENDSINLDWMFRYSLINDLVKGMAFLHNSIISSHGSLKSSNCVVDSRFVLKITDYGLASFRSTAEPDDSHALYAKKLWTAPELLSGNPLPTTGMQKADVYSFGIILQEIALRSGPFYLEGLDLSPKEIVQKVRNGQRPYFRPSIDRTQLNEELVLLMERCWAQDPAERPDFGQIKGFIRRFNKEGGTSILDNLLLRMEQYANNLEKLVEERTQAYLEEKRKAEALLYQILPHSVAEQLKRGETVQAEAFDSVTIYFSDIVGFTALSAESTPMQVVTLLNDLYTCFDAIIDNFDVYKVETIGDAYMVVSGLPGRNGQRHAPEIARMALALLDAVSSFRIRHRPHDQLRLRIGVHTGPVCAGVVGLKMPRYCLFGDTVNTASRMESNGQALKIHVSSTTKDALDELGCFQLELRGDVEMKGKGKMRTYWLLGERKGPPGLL
Source text: (§3) The plasmid used for preparing retrovirus vector expressing GC‐B‐FLAG (pCX4 puro GC‐B‐FLAG) was constructed by introducing the GC‐B‐FLAG fragment, amplified by polymerase chain reaction (PCR) from human GC‐B obtained from Promega (Madison, WI), into the NotI site of pCX4 puro. The vector was transfected into BOSC cells with pE‐eco and pGp (TAKARA BIO, Kyoto, Japan) using FuGENE6 (Promega) to produce ecotropic retrovirus. After transfection, culture supernatants were collected, and filtered. Retroviral infection of RD and RMS‐YM cells was performed using the retrovirus and Ecotropic Receptor Booster (TAKARA BIO). After infection, cells were selected with puromycin. These resultant cell lines are referred to as RD‐GC‐B or RMS‐YM‐GC‐B.
(§4) Rhabdomyosarcoma cells were seeded onto 24‐well plastic plates and incubated for 24 h. After the cells were confluent as a monolayer, they were washed twice with 500 μL of serum‐free RPMI‐1640 and incubated in serum‐free medium for 24 h. CNP was dissolved in 5 mmol/L isobutylmethylxanthine (IBMX) at final concentrations of 1 nmol/L–10 μmol/L. Various concentrations of CNP were added to the medium, and the monolayer was incubated at 37°C for an additional 15 min. […] The cGMP content of the dried extract was quantitated using a radioimmunoassay (RIA) kit (Yamasa Shoyu, Tokyo, Japan).

GC‐B in RD‐GC‐B cells = target: T2, GC‐B in RD‐GC‐B cells (Homo sapiens, UniProt P20594); assay: Measurement of intracellular cGMP (RIA) in RD‐GC‐B cells; type: cell-based; details: RD‐GC‐B cells stably expressing GC‐B
T2 construct: host or cells: RD and RMS‐YM cells, retrovirally infected and puromycin-selected (RD‐GC‐B, RMS‐YM‐GC‐B)
T2 sequence (P20594 23-1047): T1 sequence (P20594 23-1047)
Source text: as §3, §4

RD‐GC‐B cells [8] = assay: Cell proliferation assay (Cell Counting Kit‐8 / WST‐8), RD‐GC‐B; type: cell-based, human; details: CNP 1 μmol/L, 96 h, 1% serum, versus solvent control, n = 6, three independent experiments
Protocol: as §1

RMS‐YM‐GC‐B cells = assay: Cell proliferation assay (Cell Counting Kit‐8 / WST‐8), RMS‐YM‐GC‐B; type: cell-based, human; details: CNP 1 μmol/L, 96 h, 1% serum, versus solvent control, n = 6, three independent experiments
Protocol: as §1

[9] = target: T3, GC‐B receptors in RD cells (Homo sapiens, UniProt P20594); assay: Measurement of intracellular cGMP (RIA) in RD cells; type: cell-based; details: 15 min
T3 construct: host or cells: RD cells
T3 sequence (P20594 23-1047): T1 sequence (P20594 23-1047)
Protocol: (§5) Rhabdomyosarcoma cells were seeded onto 24‐well plastic plates and incubated for 24 h. After the cells were confluent as a monolayer, they were washed twice with 500 μL of serum‐free RPMI‐1640 and incubated in serum‐free medium for 24 h. CNP was dissolved in 5 mmol/L isobutylmethylxanthine (IBMX) at final concentrations of 1 nmol/L–10 μmol/L. Various concentrations of CNP were added to the medium, and the monolayer was incubated at 37°C for an additional 15 min. The medium was rapidly removed by aspiration, and 400 μL of 70% ethanol containing 100 μmol/L hydrochloric acid (HCl) was added to lyse the cells. The cGMP content of the dried extract was quantitated using a radioimmunoassay (RIA) kit (Yamasa Shoyu, Tokyo, Japan).

parental RD cells = assay: Cell proliferation assay, parental RD; type: cell-based, human; details: data not shown
Protocol: as §1

[10] = Plasma CNP measurements (CNP RIA kit); type: in vivo, C57BL/6 mice; details: continuous s.c. infusion 2.5 μg/kg/min by osmotic mini‐pump, blood 3 days after implantation, n = 5 versus untreated n = 10
Protocol: Osmotic mini‐pumps containing CNP were implanted subcutaneously in 6‐week‐old male C57BL/6 mice purchased from Japan SLC. CNP was administered at a rate of 2.5 μg/kg/min, and blood samples from these treated mice and untreated mice were withdrawn 3 days after the implantation. CNP content was determined using a CNP RIA kit (Phoenix Pharmaceuticals, Belmont, CA).

[11] = test system: ERK phosphorylation in parental RD cells; assay: Western blot of ERK phosphorylation, parental RD; type: cell-based, human; details: data not shown
Protocol: as §2

parental RMS‐YM cells = assay: Cell proliferation assay, parental RMS‐YM; type: cell-based, human; details: data not shown
Protocol: as §1

[12] = target: T4, GC‐B receptors in RMS‐YM cells (Homo sapiens, UniProt P20594); assay: Measurement of intracellular cGMP (RIA) in RMS‐YM cells; type: cell-based; details: 15 min
T4 construct: host or cells: RMS‐YM cells
T4 sequence (P20594 23-1047): T1 sequence (P20594 23-1047)
Protocol: as §5

[13] = test system: ERK phosphorylation in parental RMS‐YM cells; assay: Western blot of ERK phosphorylation, parental RMS‐YM; type: cell-based, human; details: data not shown
Protocol: as §2

[14] = sildenafil 20 mg/kg i.p. every other day, 4 weeks
[15] = CNP 1 μmol/L, sildenafil 100 μmol/L
[16] = CNP 1 nmol/L–10 μmol/L with IBMX, 37°C, serum-free, RIA, average of four wells

CCCc1nn(C)c2c(=O)[nH]c(-c3cc(S(=O)(=O)N4CCN(C)CC4)ccc3OCC)nc12 [sildenafil]
morphological appearance of cell death [1]: not observed
ERK phosphorylation [2]: did not cause dephosphorylate ERK
caspase‐3 activity (apoptosis) (RD‐GC‐B cells [3]): not significantly induced
Expression of HES‐1, β‐catenin, and GLI1, and phosphorylation of Akt [4]: not changed
ERK phosphorylation [5]: did not cause dephosphorylate ERK
tumor growth (tumor volume) (RD‐GC‐B xenograft tumors; [14]): did not suppress tumor growth significantly
Ki67 labeling index (RD‐GC‐B xenograft tumors): significantly reduced
Phosphorylated ERK levels in xenograft tumors (RD‐GC‐B xenograft tumors): ~30 % of control levels

C‐type natriuretic peptide [CNP]
hypotension [6]: does not cause hypotension
CNP‐dependent cGMP production [7]: robust increases
CNP‐dependent cGMP production (GC‐B in RD‐GC‐B cells): robust increases
morphological appearance of cell death [1]: not observed
cell proliferation (RD‐GC‐B cells [8]): significantly attenuated
cell proliferation (RMS‐YM‐GC‐B cells): significantly attenuated
ERK phosphorylation [2]: dephosphorylation of ERK
phosphorylation of Raf‐1 and MEK [2, 15]: Dephosphorylation
caspase‐3 activity (apoptosis) (RD‐GC‐B cells [3]): not significantly induced
CNP concentration at which cGMP levels almost reached a plateau ([9]; with IBMX): ~1 µmol/L
intracellular cGMP levels [9, 16]: increased the intracellular cGMP levels in a dose‐dependent manner
effect on proliferation (parental RD cells): no effect
Expression of HES‐1, β‐catenin, and GLI1, and phosphorylation of Akt [4]: not changed
plasma concentration of CNP [10]: significantly increased
reduction in ERK phosphorylation [11]: no effect
ERK phosphorylation [5]: dephosphorylation of ERK
phosphorylation of Raf‐1 and MEK [5, 15]: Dephosphorylation
effect on proliferation (parental RMS‐YM cells): no effect
CNP concentration at which cGMP levels almost reached a plateau ([12]; with IBMX): ~1 µmol/L
intracellular cGMP levels [12, 16]: increased the intracellular cGMP levels in a dose‐dependent manner
reduction in ERK phosphorylation [13]: no effect
body weight of mice during treatment (tolerability) (RD‐GC‐B xenograft tumors; 4 weeks, CNP 2.5 μg/kg/min s.c., sildenafil 20 mg/kg i.p. every other day, relative to control group): did not induce weight loss
tumor growth (tumor volume) (RD‐GC‐B xenograft tumors; [14]): did not suppress tumor growth significantly
Ki67 labeling index (RD‐GC‐B xenograft tumors): significantly reduced
Phosphorylated ERK levels in xenograft tumors (RD‐GC‐B xenograft tumors): ~30 % of control levels
